Test results: ChEMBL document CHEMBL3808348, “Rational Design, Synthesis, and Biological Evaluation of 7-Azaindole Derivatives as Potent Focused Multi-Targeted Kinase Inhibitors” (J Med Chem, 2016)

How the values were obtained:
[1] = Cmax in Swiss mouse plasma at 2 mg/kg, iv by LC/MS/MS analysis; type: ADME, organism-based; set-up: dose 2 mg/kg, route intravenous
[2] = biological target: Tyrosine-protein kinase ABL1 (Homo sapiens, UniProt P00519, E255K); assay: Inhibition of His-tagged full length human recombinant ABL E255K mutant expressed in baculovirus using Fluorescein-Poly GT as substrate
Sequence of Tyrosine-protein kinase ABL1 (P00519 whole entry E255K): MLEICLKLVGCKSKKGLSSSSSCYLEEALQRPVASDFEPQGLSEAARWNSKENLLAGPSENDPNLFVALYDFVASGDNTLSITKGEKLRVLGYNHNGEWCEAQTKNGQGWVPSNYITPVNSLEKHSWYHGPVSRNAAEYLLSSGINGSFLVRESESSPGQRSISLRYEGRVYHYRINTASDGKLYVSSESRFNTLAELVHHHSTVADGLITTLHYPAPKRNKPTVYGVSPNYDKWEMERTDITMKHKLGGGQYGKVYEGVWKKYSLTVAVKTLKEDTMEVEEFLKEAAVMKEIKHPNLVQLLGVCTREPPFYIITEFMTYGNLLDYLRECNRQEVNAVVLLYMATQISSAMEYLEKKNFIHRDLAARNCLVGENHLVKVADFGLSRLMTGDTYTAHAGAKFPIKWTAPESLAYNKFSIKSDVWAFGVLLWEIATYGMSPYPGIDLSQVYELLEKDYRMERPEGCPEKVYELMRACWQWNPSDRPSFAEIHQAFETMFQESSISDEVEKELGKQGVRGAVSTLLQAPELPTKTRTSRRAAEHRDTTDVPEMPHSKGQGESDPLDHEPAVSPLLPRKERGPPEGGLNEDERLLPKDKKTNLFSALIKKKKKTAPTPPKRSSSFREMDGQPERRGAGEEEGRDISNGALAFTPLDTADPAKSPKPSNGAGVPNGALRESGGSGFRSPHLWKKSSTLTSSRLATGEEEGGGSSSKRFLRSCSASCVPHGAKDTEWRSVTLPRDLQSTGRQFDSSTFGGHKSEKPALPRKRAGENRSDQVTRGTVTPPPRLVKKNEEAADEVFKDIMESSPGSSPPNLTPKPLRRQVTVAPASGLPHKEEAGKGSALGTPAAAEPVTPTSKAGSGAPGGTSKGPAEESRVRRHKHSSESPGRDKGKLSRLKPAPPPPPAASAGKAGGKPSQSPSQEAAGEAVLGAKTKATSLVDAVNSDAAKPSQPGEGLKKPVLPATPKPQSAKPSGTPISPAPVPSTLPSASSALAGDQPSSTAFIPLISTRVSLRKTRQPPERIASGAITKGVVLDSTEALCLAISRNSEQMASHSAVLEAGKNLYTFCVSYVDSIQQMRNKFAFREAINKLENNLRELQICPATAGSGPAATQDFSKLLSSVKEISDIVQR

[3] = biological target: T1, Tyrosine-protein kinase Yes (Homo sapiens, UniProt P07947); assay: Inhibition of GST-tagged full length human recombinant YES expressed in baculovirus using Fluorescein-Poly GT as substrate
[4] = biological target: Serine/threonine-protein kinase Nek2 (Homo sapiens) (UniProt P51955); conditions: 100 nM
Description: Inhibition of HIS-tagged full length human recombinant NEK2 expressed in baculovirus using Fluorescein-PKC as substrate at 100 nM

[5] = biological target: Receptor tyrosine-protein kinase erbB-2 (Homo sapiens) (UniProt P04626); conditions: 100 nM
Sequence of Receptor tyrosine-protein kinase erbB-2 (Homo sapiens) (P04626 whole entry): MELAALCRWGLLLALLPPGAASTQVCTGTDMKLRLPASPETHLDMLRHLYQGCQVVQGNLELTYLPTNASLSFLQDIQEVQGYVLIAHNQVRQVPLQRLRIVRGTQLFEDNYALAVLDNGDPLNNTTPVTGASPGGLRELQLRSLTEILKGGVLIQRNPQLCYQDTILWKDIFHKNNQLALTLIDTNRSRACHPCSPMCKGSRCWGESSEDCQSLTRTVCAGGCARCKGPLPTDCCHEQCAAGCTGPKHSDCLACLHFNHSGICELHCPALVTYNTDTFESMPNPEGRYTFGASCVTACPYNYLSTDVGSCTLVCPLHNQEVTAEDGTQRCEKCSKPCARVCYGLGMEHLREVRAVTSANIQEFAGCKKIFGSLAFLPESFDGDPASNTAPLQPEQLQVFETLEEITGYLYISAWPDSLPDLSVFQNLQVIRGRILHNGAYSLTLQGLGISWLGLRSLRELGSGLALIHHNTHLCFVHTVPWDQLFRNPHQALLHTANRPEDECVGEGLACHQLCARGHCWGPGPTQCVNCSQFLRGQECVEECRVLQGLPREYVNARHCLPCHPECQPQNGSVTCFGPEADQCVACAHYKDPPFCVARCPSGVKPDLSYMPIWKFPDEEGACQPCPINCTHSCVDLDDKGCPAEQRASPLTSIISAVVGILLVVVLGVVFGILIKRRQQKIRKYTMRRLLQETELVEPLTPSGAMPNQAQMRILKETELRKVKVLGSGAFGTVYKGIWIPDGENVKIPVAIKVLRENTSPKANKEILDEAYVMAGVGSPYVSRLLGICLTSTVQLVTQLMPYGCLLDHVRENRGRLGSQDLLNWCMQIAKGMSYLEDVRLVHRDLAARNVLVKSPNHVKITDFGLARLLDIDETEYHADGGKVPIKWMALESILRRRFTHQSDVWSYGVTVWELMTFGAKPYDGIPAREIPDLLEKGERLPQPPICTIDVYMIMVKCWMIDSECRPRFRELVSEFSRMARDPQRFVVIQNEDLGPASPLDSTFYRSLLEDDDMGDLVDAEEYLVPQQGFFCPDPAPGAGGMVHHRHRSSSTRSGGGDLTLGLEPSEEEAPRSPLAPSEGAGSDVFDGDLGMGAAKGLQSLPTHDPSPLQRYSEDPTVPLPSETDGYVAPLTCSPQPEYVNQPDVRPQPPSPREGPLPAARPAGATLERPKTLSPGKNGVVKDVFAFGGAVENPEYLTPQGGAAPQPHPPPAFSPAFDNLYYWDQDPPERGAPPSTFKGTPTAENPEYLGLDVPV
Description: Inhibition of His-tagged human recombinant ERBB2 (676 to 1225 residues) expressed in baculovirus using Fluorescein-Poly GT as substrate at 100 nM

[6] = biological target: Serine/threonine-protein kinase Chk2 (Homo sapiens) (UniProt O96017); conditions: 100 nM
Description: Inhibition of His-tagged human recombinant CHK2 expressed in baculovirus using Fluorescein-CREBtide as substrate at 100 nM

[7] = biological target: Serine/threonine-protein kinase PAK 2 (Homo sapiens) (UniProt Q13177); conditions: 100 nM
Sequence of Serine/threonine-protein kinase PAK 2 (Homo sapiens) (Q13177 whole entry): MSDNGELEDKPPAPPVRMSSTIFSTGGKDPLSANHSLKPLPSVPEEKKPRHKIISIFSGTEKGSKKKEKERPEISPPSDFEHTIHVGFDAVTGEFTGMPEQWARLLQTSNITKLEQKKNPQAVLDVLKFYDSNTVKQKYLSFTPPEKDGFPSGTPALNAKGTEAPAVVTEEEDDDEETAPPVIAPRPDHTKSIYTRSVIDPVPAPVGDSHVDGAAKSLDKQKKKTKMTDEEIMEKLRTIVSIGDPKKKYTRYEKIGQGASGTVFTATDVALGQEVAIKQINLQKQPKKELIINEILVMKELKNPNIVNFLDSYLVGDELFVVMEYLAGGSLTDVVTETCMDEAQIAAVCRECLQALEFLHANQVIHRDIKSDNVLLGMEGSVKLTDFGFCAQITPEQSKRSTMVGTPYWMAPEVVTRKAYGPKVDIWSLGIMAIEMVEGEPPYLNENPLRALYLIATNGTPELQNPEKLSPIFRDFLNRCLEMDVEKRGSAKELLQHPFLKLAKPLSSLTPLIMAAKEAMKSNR
Description: Inhibition of GST-tagged full length human recombinant PAK2 expressed in baculovirus at 100 nM

[8] = biological target: 3-phosphoinositide-dependent protein kinase 1 (Homo sapiens) (UniProt O15530); conditions: 100 nM
Description: Inhibition of PDK1 (unknown origin) at 100 nM

[9] = AUC(0 to infinity) in Swiss mouse plasma at 20 mg/kg, po by LC/MS/MS analysis; type: ADME, organism-based; set-up: dose 20 mg/kg, time infinity, route oral
hERG (KCNH2) = hERG (KCNH2) (Homo sapiens, UniProt Q12809); assay: Inhibition of human ERG expressed in HEK293 cells at 30 uM by patch clamp assay; type: cell-based; conditions: HEK293 cells expressing human ERG
[10] = biological target: Platelet-derived growth factor receptor alpha (Homo sapiens, UniProt P16234); assay: Inhibition of full length GST-tagged human recombinant PDGFRalpha expressed in baculovirus using Fluorescein-Poly GT as substrate at 100 nM
Sequence of Platelet-derived growth factor receptor alpha (P16234 whole entry): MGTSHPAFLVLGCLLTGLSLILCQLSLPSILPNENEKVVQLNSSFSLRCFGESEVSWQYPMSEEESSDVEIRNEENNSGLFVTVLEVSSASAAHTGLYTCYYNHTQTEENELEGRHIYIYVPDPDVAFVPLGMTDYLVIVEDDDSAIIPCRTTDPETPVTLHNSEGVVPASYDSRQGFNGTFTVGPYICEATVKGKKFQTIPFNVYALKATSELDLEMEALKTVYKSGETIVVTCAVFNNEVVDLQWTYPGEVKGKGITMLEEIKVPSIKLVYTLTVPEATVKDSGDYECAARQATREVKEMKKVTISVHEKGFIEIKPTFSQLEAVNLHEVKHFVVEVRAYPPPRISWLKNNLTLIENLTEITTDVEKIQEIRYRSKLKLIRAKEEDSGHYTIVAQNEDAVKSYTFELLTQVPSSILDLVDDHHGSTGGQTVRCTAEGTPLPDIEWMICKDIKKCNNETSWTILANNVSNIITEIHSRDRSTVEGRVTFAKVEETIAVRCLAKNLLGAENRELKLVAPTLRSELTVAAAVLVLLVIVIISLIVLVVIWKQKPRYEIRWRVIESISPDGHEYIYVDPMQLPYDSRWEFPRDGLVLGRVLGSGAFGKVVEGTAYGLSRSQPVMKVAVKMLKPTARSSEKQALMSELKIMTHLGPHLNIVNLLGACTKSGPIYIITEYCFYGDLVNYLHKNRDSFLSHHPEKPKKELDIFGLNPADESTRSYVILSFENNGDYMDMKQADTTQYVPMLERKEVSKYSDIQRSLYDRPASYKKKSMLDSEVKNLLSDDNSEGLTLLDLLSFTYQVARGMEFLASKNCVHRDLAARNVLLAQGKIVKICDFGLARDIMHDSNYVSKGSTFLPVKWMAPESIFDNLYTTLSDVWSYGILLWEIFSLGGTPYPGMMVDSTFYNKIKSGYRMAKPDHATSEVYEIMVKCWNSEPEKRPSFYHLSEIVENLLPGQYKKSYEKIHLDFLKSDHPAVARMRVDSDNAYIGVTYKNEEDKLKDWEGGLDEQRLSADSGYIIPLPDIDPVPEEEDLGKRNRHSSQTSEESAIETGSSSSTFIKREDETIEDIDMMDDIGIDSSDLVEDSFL

[11] = biological target: T1, Tyrosine-protein kinase Yes; assay: Inhibition of GST-tagged full length human recombinant YES expressed in baculovirus using Fluorescein-Poly GT as substrate at 100 nM
[12] = Cmax in Swiss mouse plasma at 20 mg/kg, po by LC/MS/MS analysis; type: ADME, organism-based; set-up: dose 20 mg/kg, route oral
PBMC = assay: Hematotoxicity in human PHA/IL2-stimulated PBMC; type: cell-based
[13] = biological target: Tyrosine-protein kinase receptor TYRO3 (Homo sapiens) (UniProt Q06418); conditions: 100 nM
Sequence of Tyrosine-protein kinase receptor TYRO3 (Homo sapiens) (Q06418 whole entry): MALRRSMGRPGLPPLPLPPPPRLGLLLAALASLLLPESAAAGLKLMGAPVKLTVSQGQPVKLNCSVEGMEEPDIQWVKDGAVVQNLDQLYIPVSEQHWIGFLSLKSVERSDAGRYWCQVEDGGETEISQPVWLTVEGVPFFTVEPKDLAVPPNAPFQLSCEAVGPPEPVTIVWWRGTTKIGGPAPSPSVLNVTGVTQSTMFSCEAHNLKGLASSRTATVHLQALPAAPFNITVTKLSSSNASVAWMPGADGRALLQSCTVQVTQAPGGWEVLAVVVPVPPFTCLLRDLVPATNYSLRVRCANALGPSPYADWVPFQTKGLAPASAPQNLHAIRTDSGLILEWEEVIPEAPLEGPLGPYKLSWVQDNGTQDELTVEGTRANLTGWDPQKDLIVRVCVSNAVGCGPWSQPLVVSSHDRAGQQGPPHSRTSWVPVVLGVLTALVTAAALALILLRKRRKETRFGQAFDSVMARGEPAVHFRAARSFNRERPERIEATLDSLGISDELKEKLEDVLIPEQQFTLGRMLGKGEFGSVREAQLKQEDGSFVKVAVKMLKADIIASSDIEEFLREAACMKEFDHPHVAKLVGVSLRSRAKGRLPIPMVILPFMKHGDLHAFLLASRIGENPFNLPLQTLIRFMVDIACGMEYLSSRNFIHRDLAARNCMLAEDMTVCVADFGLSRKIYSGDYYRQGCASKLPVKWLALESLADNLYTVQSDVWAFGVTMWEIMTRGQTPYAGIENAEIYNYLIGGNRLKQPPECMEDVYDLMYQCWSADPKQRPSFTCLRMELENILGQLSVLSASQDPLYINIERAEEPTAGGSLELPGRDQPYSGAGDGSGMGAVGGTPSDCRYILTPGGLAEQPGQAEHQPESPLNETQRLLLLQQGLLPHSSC
Description: Inhibition of GST-tagged human recombinant TYRO3 (451 to 890 residues) expressed in baculovirus using Fluorescein-Poly GT as substrate at 100 nM

[14] = biological target: Tyrosine-protein kinase Fyn (Homo sapiens, UniProt P06241); assay: Inhibition of His-tagged full length human recombinant FYN expressed in baculovirus using Fluorescein-Poly GT as substrate
[15] = biological target: Ephrin type-A receptor 2 (Homo sapiens) (UniProt P29317); conditions: 100 nM
Description: Inhibition of GST-tagged human recombinant EPHA2 (560 to 976 residues) expressed in baculovirus using Fluorescein-Poly GT as substrate at 100 nM

COC(=O)c1cc2cc(NCc3cc(NC(=O)c4cc(-n5cnc(C)c5)cc(C(F)(F)F)c4)ccc3C)cnc2[nH]1
Cmax [1]: 853 ng/mL
IC50 [2]: 73 nM
IC50 [3]: 44 nM
inhibition [4]: < 40%
inhibition [5]: < 40%
inhibition [6]: < 40%
inhibition [7]: < 40%
inhibition [8]: < 40%
AUC(0-inf) [9]: 3030 ng·h/mL
inhibition at 30 µM (hERG (KCNH2)): 26%
inhibition [10]: 68%
inhibition [11]: > 80%
Cmax [12]: 610 ng/mL
EC50 (PBMC): 1200 nM
inhibition [13]: < 40%
IC50 [14]: 131 nM
inhibition [15]: < 40%
